Key:
BMDM [1] = assay: Anti-osteoclastogensis activity C57BL/6 mouse bone marrow macrophages assessed as inhibition of RANKL-induced osteoclastogenesis by measuring osteoclasts number at 1 to 10 uM and measured after 5 days in presence of M-CSF by TRAP staining based assay; type: functional, cell-based; settings: dose 1-10 µM, time 5.0 day, DDE = dose-dependent effect
BMDM [2] = assay: Cytotoxicity against C57BL/6 mouse bone marrow macrophages assessed as reduction in cell viability at 10 uM incubated for 48 hrs in presence of M-CSF by CCK8 assay; type: toxicity, cell-based
BMDM [3] = assay: Anti-osteoclastogensis activity C57BL/6 mouse bone marrow macrophages assessed as inhibition of RANKL-induced osteoclastogenesis by measuring osteoclasts size at 1 to 10 uM and measured after 5 days in presence of M-CSF by TRAP staining based assay; type: functional, cell-based; settings: dose 1-10 µM, time 5.0 day, DDE = dose-dependent effect
[4] = Anti-osteoclastogensis activity C57BL/6 mouse bone marrow macrophages assessed as inhibition of RANKL-induced osteoclastogenesis and measured after 5 days in presence of M-CSF by TRAP staining based assay; type: functional, cell-based; settings: bmdm

Row | SMILES | Activity (BMDM [1]) | Activity (BMDM [2]) | Activity (BMDM [3]) | IC50 [4] [nM]
1 | CC(=O)OCCC(/C=C/C=C/C#CC#C/C=C/CO)OC(C)=O (stereo not drawn) | Dde | Non-Toxic | Dde | 1300
2 | OC/C=C/C#CC#C/C=C/c1ccco1 | Dde | Non-Toxic | Dde | 640

Source: ChEMBL document CHEMBL5143640, “Diverse Sesquiterpenoids and Polyacetylenes from Atractylodes lancea and Their Anti-Osteoclastogenesis Activity” (J Nat Prod, 2022)
